{"source": "patent US20170115265A1", "about": "“Use of Visibly Detectable Compounds as Performance Reference Compounds in Passive Sampling Devices” (Geosyntec Consultants, Inc., priority 2015, published 2017)", "key": {"[1]": {"test": "Example 2: hypothetical 28-day sediment deployment of PE PSD spiked with three dye PRCs", "type": "physicochemical", "conditions": "for Log10-transformed ke (hypothetical) / ke (hypothetical): PE PSD 28 days in sediment", "description": "Two PSD could be created (each consisting of a 4×10 cm piece of PE).\nThe KPE values of the 3 dyes are dissimilar to that of PCB-60, yet they may be used to provide a ke for PCB-60 according to the following approach. One PSD containing the three above dyes would be deployed into sediment for a period of 28 days, and the other PSD containing the three above dyes would be held in storage. Following retrieval of the PSD deployed in the sediment, both PSDs would be extracted in solvent (e.g., 50-mL mixture of hexane and methylene chloride). […] Concentrations of these dyes in the PE could be calculated assuming a known mass of each PE piece. The solvent extract of the PSD that had been exposed to the sediment for 28 days would be measured for PCBs using high-resolution gas chromatography/high-resolution mass spectrometry with an approximate 30- to 60-minute analysis time per sample. Via this analysis, the concentration of PCB-60 in the PSD that had been exposed to the sediment for 28 days could be determined.\n(§1) A linear regression model would then be estimated using the Log10 ke values as the dependent variable (y axis) and the Log10 KPE values as the independent variable […].\nFIG. 2 is a line graph showing this equation plotted as Log10 Ke (day-1) versus Log10 KPE (liters/kg/PE). […] By using the equation from the plot shown in FIG. 2, the predicted ke value of PCB-60 could be interpolated from its known KPE value."}, "[2]": {"test": "Example 7: elimination of dye PRCs from PE PSDs in jars of sediment and water agitated 14 days on a shaker table", "type": "physicochemical", "conditions": "PE PSD", "description": "Two additional 3×3 cm PSDs were spiked with 10 unlabeled PCB PRCs that are not visibly detectable, but are routinely used as PRCs in passive sampling applications.\nThe five jars containing the PSDs were closed and agitated for a period of 14 days on a shaker table. The other four dye-spiked PSDs and PCB-spiked PSD were held in storage. Following retrieval of the PSDs deployed in the sediment after 14 days, the PSDs were extracted in solvent (e.g., 50-mL mixture of hexane and methylene chloride). […] Concentrations of these dyes in the PE could be calculated assuming a known mass of each PE piece. The solvent extracts of the PSDs that had been exposed to the sediment for 14 days and held in storage for 14 days would be measured for PCBs using high-resolution gas chromatography/high-resolution mass spectrometry with an approximate 30- to 60-minute analysis time per sample.\nas §1"}, "[3]": {"conditions": "cited from earlier work; for Log KOW: source not stated; for Log KOW value: drugs, reported by Scheytt et al. 2005; for Log KOW value (may be estimate): common dyes, Table 1, values said to be known"}, "[4]": {"test": "polyethylene-water partition coefficient (KPE) of PCBs according to Smedes et al.", "type": "physicochemical", "conditions": "Log10 of the cited KPE", "description": "Assuming the KPE values are roughly similar (i.e., within 10%) between the dye and the analyte of interest, the dye could also be an appropriate PRC to use for other compounds. For example, given that KPE Sudan III KPE is 390,000 L/kg, Sudan III could be used as a PRC for compounds with KPE values from 350,000 L/kg to 430,000 L/kg."}, "[5]": {"test": "Example 1: elimination of PRCs from PE passive sampling devices deployed 14 days in marine aquatic sediment", "type": "physicochemical", "conditions": "PE PSD at Station 6, marine sediment", "description": "Twenty PSDs were created (each consisting of a 4×10 cm piece of PE). Ten of the PSDs were spiked with PCB-36 (which is not visibly detectable) and ten of the PSDs were spiked with Sudan III, a visibly detectable PRC within the scope of the present disclosure. The 20 spiked PSDs then were inserted in the top 10 cm of aquatic sediment at a marine (ocean) site by scuba divers at ten locations within a half-acre area. At each of the 10 locations, one PSD containing PCB-36 and one PSD containing Sudan III were deployed.\nAfter 14 days, the PSDs were collected by divers, brought to the surface, placed in a shipping container, and sent to a laboratory, where they were wiped with moistened tissues, placed in small vials, and extracted with solvent. […] The 13 solvents (from extraction of 10 exposed PSDs and 3 trip blanks PSDs) into which the PCB-36-spiked PSDs were extracted were then measured for PCBs using high-resolution gas chromatography/high-resolution mass spectrometry with an approximate 30- to 60-minute analysis time per sample. Via this analysis, the concentrations of PCB-36 in the 13 PCB-36-spiked PSDs were determined. […] Via this analysis, the concentration of Sudan III in the 13 Sudan III-spiked PSDs was determined. […]"}, "[6]": {"test": "Example 8: Sudan III elimination from PE PSDs, marine sediment versus agitated sediment, 14 days", "type": "physicochemical", "method": "Six 3×3 cm PSDs and fourteen 4×10 cm PSDs were spiked with Sudan III dye. Eleven of the larger (4×10 cm) PSDs were inserted in the top 10 cm of aquatic sediment at a marine (ocean) site by scuba divers at ten locations within a half-acre area. Three of the smaller (3×3 cm) PSDs were deployed into […] 8-oz jars containing approximately 100 g (wet weight) sediment and 150 mL water. The three jars containing the PSDs were closed and agitated for a period of 14 days on a shaker table. […] The solvents from the PSDs were analyzed on a benchtop UV/Vis spectrophotometer at wavelengths of 465 nm (to indicate the concentration of Sudan III in the solvent). Concentrations of these dyes in the PE could be calculated assuming a known mass of each PE piece.\nUsing the average concentrations of Sudan III in the unexposed PSDs (to represent the t=0 concentration) and the concentration of Sudan III in the PSDs that had been exposed to the marine sediment and agitated sediment for 14 days (the time t concentrations), one could estimate the ke values using the equation provided in Example 1. […] Thus, the dye approach can be used to quantify the increase in sampling rates for various methods (i.e., unagitated deployments, various types of agitated deployments), and provides a low cost and efficient method compared to other PRCs."}}, "note": "Where two headings read alike, the source gives them in different places."}
{"smiles": "Cc1ccc(Nc2ccc(O)c3c2C(=O)c2ccccc2C3=O)cc1", "note": "[Solvent Violet 13]", "values": [{"measurement": "Log10-transformed ke (hypothetical)", "setting": "[1]", "result": -1.7, "unit": "day^−1"}, {"measurement": "ke (hypothetical)", "setting": "[1]", "result": 0.02, "unit": "day⁻¹"}, {"measurement": "ke", "setting": "[2]", "result": 0.16, "unit": "day⁻¹"}, {"measurement": "Log KOW", "setting": "[3]; dye compounds of Table 2", "result": 6.2}, {"measurement": "Log KOW", "setting": "[3]; dye compounds of Table 4", "result": 6.2}]}
{"smiles": "CC(C)Cc1ccc(C(C)C(=O)O)cc1", "note": "(centres unmarked) [Ibuprofen]", "values": [{"measurement": "Log KOW value", "setting": "[3]", "result": 2.48}]}
{"smiles": "Oc1ccc2ccccc2c1N=Nc1ccccc1", "note": "[Sudan I]", "values": [{"measurement": "Log KOW", "setting": "[3]; dye compounds of Table 2", "result": 5.5}]}
{"smiles": "COc1ccc(OC)c(N=Nc2c(O)ccc3ccccc23)c1", "note": "[Citrus Red 2]", "values": [{"measurement": "Log KOW value (may be estimate)", "setting": "[3]", "result": 5.67}]}
{"smiles": "Clc1ccc(-c2ccc(Cl)c(Cl)c2Cl)cc1", "note": "[PCB-60]", "values": [{"measurement": "Log10 KPE", "setting": "[4]", "result": 5.9, "unit": "L/kg PE"}, {"measurement": "estimated hypothetical ke interpolated from KPE", "setting": "[1]; from regression of FIG. 2", "result": 0.028, "unit": "day⁻¹"}]}
{"smiles": "O=C(O)Cc1ccccc1Nc1c(Cl)cccc1Cl", "note": "[Diclofenac]", "values": [{"measurement": "Log KOW value", "setting": "[3]", "result": 1.9}]}
{"smiles": "Clc1cccc(-c2cc(Cl)cc(Cl)c2)c1", "note": "[PCB-36]", "values": [{"measurement": "elimination rate ke", "setting": "[5]", "result": 0.043, "unit": "day⁻¹"}]}
{"smiles": "CC(C)(Oc1ccc(Cl)cc1)C(=O)O", "note": "[Clofibric acid]", "values": [{"measurement": "Log KOW value", "setting": "[3]", "result": 2.88}]}
{"smiles": "Oc1ccc(N=Nc2ccccc2)c(O)c1", "note": "[Sudan Orange G]", "values": [{"measurement": "Log10-transformed ke (hypothetical)", "setting": "[1]", "result": "−0.1", "unit": "day^−1"}, {"measurement": "ke (hypothetical)", "setting": "[1]", "result": 0.8, "unit": "day⁻¹"}, {"measurement": "ke", "setting": "[2]", "result": 0.41, "unit": "day⁻¹"}, {"measurement": "Log KOW", "setting": "[3]; dye compounds of Table 2", "result": 3.9}, {"measurement": "Log KOW", "setting": "[3]; dye compounds of Table 4", "result": 3.9}]}
{"smiles": "O=C1/C(=C2\\Nc3ccccc3C2=O)Nc2ccccc21", "note": "[Indigo dye]", "values": [{"measurement": "Log KOW value (may be estimate)", "setting": "[3]", "result": 3.7}]}
{"smiles": "Cc1c(C(C)C)c(=O)n(-c2ccccc2)n1C", "note": "[Propyphenazone]", "values": [{"measurement": "Log KOW value", "setting": "[3]", "result": 2.02}]}
{"smiles": "Oc1ccc2ccccc2c1N=Nc1ccc(N=Nc2ccccc2)cc1", "note": "[Sudan III]", "values": [{"measurement": "elimination rate ke", "setting": "[5]", "result": 0.032, "unit": "day⁻¹"}, {"measurement": "average ke", "setting": "[6]; agitated sediment (shaker table)", "result": 0.094, "unit": "day⁻¹"}, {"measurement": "average ke", "setting": "[6]; marine sediment (unagitated)", "result": 0.030, "unit": "day⁻¹"}, {"measurement": "Log10-transformed ke (hypothetical)", "setting": "[1]", "result": "−1.4", "unit": "day^−1"}, {"measurement": "ke (hypothetical)", "setting": "[1]", "result": 0.04, "unit": "day⁻¹"}, {"measurement": "ke", "setting": "[2]", "result": 0.046, "unit": "day⁻¹"}, {"measurement": "Log KOW", "setting": "[3]; dye compounds of Table 2", "result": 5.7}, {"measurement": "Log KOW", "setting": "[3]; dye compounds of Table 4", "result": 5.7}]}
{"smiles": "CC1(C)Nc2cccc3c(N=Nc4ccc(N=Nc5ccccc5)c5ccccc45)ccc(c23)N1", "note": "[Sudan Black B]", "values": [{"measurement": "Log10-transformed ke", "setting": "[2]", "result": "-3.1 log10(day^−1)"}, {"measurement": "ke", "setting": "[2]", "result": 0.00072, "unit": "day⁻¹"}, {"measurement": "Log KOW", "setting": "[3]; dye compounds of Table 4", "result": 8.8}]}
{"smiles": "CCN(CC)c1ccc2c(-c3ccccc3C(=O)O)c3ccc(=[N+](CC)CC)cc-3oc2c1.[Cl-]", "note": "[Rhodamine B]", "values": [{"measurement": "Log KOW", "setting": "[3]; dye compounds of Table 2", "result": 1.8}]}
